The values that follow come from article PMC2955292 (Chemistry & biology, 2010).

Assay [1] deals with T1, E. coli ClpP (Escherichia coli, UniProt P0A6G7). Briefly: Crystal structure of ClpP-ADEP1 complex. It is filed as binding.
The subject of assay [2] is ClpPin. Nature of the assay: Negative stain EM, translocation of β-casein into ClpPin. It is filed as biochemical, Escherichia coli.
For assay [3], the system named is interaction between ClpP and ClpA. Briefly: ClpP-ClpA interaction. It counts as binding, Escherichia coli. To be noted: Figure S2.
In assay [4] the test system is ClpPin. Nature of the assay: Negative stain EM, translocation of EGFP-SsrA into ClpPin. The settings on record: ADEP1 vs no compound, Figure S3B. It is filed as biochemical, Escherichia coli.
For the next assay, the system named is ClpP. The settings on record: in the presence of ADEP1; ref Brotz-Oesterhelt et al., 2005; cited from earlier work.
For assay [5], the target named is T1, E. coli ClpP. Nature of the assay: biochemical.
The next assay relates to ClpP N-terminal loop. Nature of the assay: Limited proteolysis of ClpP with Staphylococcus aureus protease V8. It is filed as biochemical, Escherichia coli. To be noted: presence vs absence of ADEP1; cleavage at Glu8 and Glu14; Figure S6.
The target in assay [6] is T1, E. coli ClpP.
The next assay relates to ClpP tetradecamer. Nature of the assay: Sedimentation velocity, oligomeric state of ClpP. On the set-up: species or system Escherichia coli.
Assay [7] has as its target T1, E. coli ClpP. Nature of the assay: Peptidase assay, oxidized insulin B chain. It counts as biochemical. To be noted: 30-residue peptide; pH 8.0, 0.1 M KCl, 37 °C; Supplemental Table 1.
Assay [8] deals with T1, E. coli ClpP. The settings on record: Figure S1A, SDS-PAGE.

Structures are written as SMILES. Values joined by “and” are separate entries in the source; they are usually repeats but may differ in a detail not shown here. Equal entries are not always repeated. “Also recorded” adds a separate entry of the source. Positions of bridges follow the written chain, without caps; N, C: chain ends. Non-standard residues stand in square brackets, D forms with d. Residues, ends and D or L forms follow the SMILES beside them. *: point of attachment. Octatrienoyl(2E,4E,6E) = C/C=C/C=C/C=C/C(=O)*; Pro(4R-Me) = C[C@H]1CN[C@H](C(=O)O)C1; NMeA = CN[C@@H](C)C(=O)O

T1 sequence (P0A6G7 15-207): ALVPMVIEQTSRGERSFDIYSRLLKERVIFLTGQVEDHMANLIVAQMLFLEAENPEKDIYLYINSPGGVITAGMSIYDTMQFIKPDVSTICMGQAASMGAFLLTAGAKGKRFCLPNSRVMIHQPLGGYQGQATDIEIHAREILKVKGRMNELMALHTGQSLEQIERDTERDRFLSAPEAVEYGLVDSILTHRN

With `C/C=C/C=C/C=C/C(=O)N[C@@H](Cc1ccccc1)C(=O)N[C@H]1COC(=O)[C@@H]2C[C@@H](C)CN2C(=O)[C@H](C)NC(=O)[C@H](C)N(C)C(=O)[C@@H]2CCCN2C1=O` [ADEP1] ({Octatrienoyl(2E,4E,6E)}-FSP[NMeA]A[Pro(4R-Me)]; ester 2-C; N-terminus assumed), on E. coli ClpP [1], the “conformation of N-terminal loops on ADEP1 binding” value is on record as “locks the N-terminal loops in an open β-hairpin conformation”, the “rigid-body movement of ClpP monomer on ADEP1 binding” value is 1.5-2 Å and the “widening of interface between adjacent ClpP monomers” value is “about 1 Å”. At E. coli ClpP [1] (1.9 Å, PDB 3MT6, apo 12 Å or less), the “axial pore diameter of ClpP bound to ADEP1” value was ~ 20 Å and 20 Å. Moreover, at E. coli ClpP [1] (Figure 5B), the “binding site and contacts of ADEP1 on ClpP” value was “binds in the hydrophobic groove that serves as the primary docking site for ClpP ATPases; also recorded: binds to a hydrophobic pocket on the outer edge of the apical surface of ClpP; also recorded: Tyr62 forms hydrogen bonds with both the phenylalanine and the alanine moieties of the compound; also recorded: the phenylalanine, β-methylproline and alanine moieties, as well as the aliphatic tail in ADEP1 are critical for binding, while the N-methylalanine and proline moieties have minimal interactions with the protein”. In addition, the “stoichiometry of ADEP1 binding” value at E. coli ClpP [1] (heptameric ring) was “one molecule of ADEP1 to each one of the seven hydrophobic clefts in the heptameric ring”. Further, in the assay with ClpPin [2] (ADEP1 alone, absence of β-casein, data not shown), the “stain penetration into ClpPin without β-casein” value is on record as “did not prevent stain penetration into the ClpPin chamber”. For the same compound, the “shift of particle intensity distribution, β-casein translocation” value with ClpPin [2] (ClpPin, ADEP1 vs no compound, Figure S3A) was “significant shift of particles to higher intensity values”. In assay [3], the “interaction between ClpP and ClpA” value is “blocked interaction between ClpP and ClpA”. Besides, the “shift of particle intensity distribution, EGFP-SsrA” value in the assay on ClpPin [4] was “no significant differences”. The “degradation of EGFP-SsrA by ClpP” value with ClpP is “not degraded”. The compound also had an EC50 on E. coli ClpP [5] of 370 nM. Further, in the assay with ClpP N-terminal loop, the “limited proteolysis of ClpP by V8 protease” value is given as “significantly slower”. At E. coli ClpP [6] (F-V 1 mM, ClpP 1 μg/ml, 10 μM ADEP1 vs ClpA 10 μg/ml with 1 mM ATPγS, 37 °C, pH 8.0), the “activation of F-V cleavage compared with ClpA” value was “comparable to the allosteric activation seen with ClpA”. In addition, the “activity of ClpP alone relative to activity with ADEP1 present” value at E. coli ClpP [6] (F-V cleavage, 10 μM ADEP1, average of two separate experiments) was ~ 2%. Further, in the assay on ClpP tetradecamer, the “effect on ClpP tetradecamer formation” value is “enhances rather than disrupts tetradecamer formation”. For the same compound, the “cleavage of oxidized insulin β chain” value on E. coli ClpP [7] is given as “activated cleavage”. Further, the “degradation of β-casein compared with ClpA and ATP” value at E. coli ClpP [8] (37 °C) was “comparable to that observed when ClpA and ATP were present”. On E. coli ClpP [8], the “pattern of β-casein degradation products (processivity)” value is reported as “generated numerous partially degraded products”.

For orientation: EC50 means the concentration needed to bring the measured effect to its halfway point.
